Experimental data taken from patent publication US9750844B2, “Composition for use in wound healing in burns” (ACADEMIA SINICA, priority 2014, dated 2017).
Entries after “also recorded” stand apart in the source; their conditions may differ.

Tests used:
[1] = system: MCP-1, IL-6, TNF; assay: Serum cytokine/chemokine ELISA in MRSA-infected wounded mice; format: in vivo, Balb/C mice; conditions: Epi-1 study, 24 h post-treatment
Source text: (§1) Elisa kits for […] (Cat no. 555260, BD Biosciences, CA, USA), IL-6 (Cat no. 555240, BD Biosciences, CA, USA), and TNF (Cat no. 558534, BD Biosciences, CA, USA) were used to determine cytokine levels. Antibodies against macrophages (Cat no. 550282, BD Biosciences, CA, USA), monocytes (Cat no. 101301, BioLegend, London, UK), and VEGF (Cat no. 550549, BD Biosciences, CA, USA) were used for immunohistochemistry (IHC). Fish scale collagen peptides (FSCPs) were isolated from tilapia (Oreochromis sp.) by the Seafood Technology Division, Fisheries Research Institute, Council of Agriculture, Taiwan.
(§2) Each wound was inoculated with 50 μl of broth mix containing 10^6 CFU of the indicated microorganism. The wounds were treated with the antimicrobial peptide according to the invention and collagen at 5 min after inoculation. At 30 min after treatment, wounds were covered with Tegaderm to maintain uniformity and to prevent the loss of the materials as treated. The wounds were examined at Day 3, 7, and 14 after the wounds were created, and the non-contaminated wounds were examined every other day. The wounds were examined to assess the transitions from inflammatory to regenerative and regenerative to resolving phases of the wound healing. At the end of the examination period, the animals were euthanized by CO2 inhalation and the wounds were assessed. For each experiment, four individuals were examined in each group at each time point. Each wound was measured and then removed from the animal, with unwounded skin taken from the contralateral abdomen as a control.

[2] = system: MRSA; assay: Assessment of wound infection: bacterial load (CFU) and Gram staining of wound tissue; format: in vivo, Balb/C mice; conditions: for Gram staining of MRSA / Gram-positive microorganisms in wound sections: Day 3 after inoculation
Protocol: Tissue samples were homogenized in PBS. Serially diluted aliquots of homogenate were cultured on Luria-Bertani agar after incubation for 18 h at 37° C., and cfu/g tissue were subsequently calculated. A stable wound infection was defined as 10^6 cfu/g tissue.
(§3) Full-thickness tissue was harvested for microbial and histological analysis. Samples from each experiment were fixed in 4% buffered paraformaldehyde. Tissue samples were stained with hematoxylin/eosin or Giemsa, and immunohistochemistry (IHC) was analyzed by three independent investigators. Images were taken with a BX-51 microscope (Olympus, Japan).
Multidrug-resistant strains of Staphylococcus aureus (MRSA) commonly associated with human wound infections were selected to generate a polymicrobial solution. The initial inoculum was prepared by culturing aerobic bacteria in Tryptic Soy Broth (TSB) overnight at 37° C. Broths were subsequently centrifuged at 1000 rpm for 15 min, and resuspended in TSB with 15% glycerol, or chopped meat extract with 15% glycerol (for aerobic bacteria). […] Prior to wound application, the bacterial stocks were re-mixed. Microbial load was determined by direct plating, followed by freeze-thaw and cfu enumeration, in parallel with inoculations. The inoculum was delivered by sterile pipettes to the center of open wounds. After euthanization (at Day 0, 3, 7, 14, or 17), two bisected tissue segments were used to determine microbial load using the protocol for human wound biopsy culture, as stated in the UPMC Clinical Microbiology Laboratory Procedure Manual. Tissue biopsies were weighed and placed in 1.5 ml of TSB, and then homogenized in a tissue grinder. A single drop of the homogenate was placed on the slide and Gram stained for rough assessment (if one or more bacteria are present within the oil immersion field, the expected count in the tissue is at least 10^5 cfu/g). Serial dilutions (1:10 (0.1+0.9)) of the tissue homogenate were made using distilled water. The cfu/g of tissue was calculated as follows: cfu/g=plate count (1/dilution)×10/wt. of homogenized tissue.

[3] = system: monocytes, macrophages, VEGF; assay: Histology (H&E, Giemsa) and immunohistochemistry of wound tissue; format: in vivo, Balb/C mice
Source text: as §1, §3

[4] = system: MRSA; assay: Antimicrobial MIC/MBC assay against MRSA in vitro; format: cell-based, Staphylococcus aureus; conditions: bacterial proliferation by optical density at 600 nm
Protocol: Minimum inhibitory concentration (MIC) and minimum bactericidal concentration (MBC) antimicrobial assays were performed. For MIC assessment, the antimicrobial peptide, Epi-1, was diluted to final concentrations of […], or 0.78 μg/ml. Twenty microliters of each dilution were mixed in a microtiter plate well with […] of the appropriate bacterial indicator suspension, and 160 μl of Trypticase Soy Broth (TSB) for S. aureus, to a total volume of 200 μl. Three replicates were examined for each S. aureus strain, compound, and concentration. Positive controls contained water instead of compounds, and negative controls contained compounds without bacterial suspensions. Microbial growth was automatically determined by optical density measurement at 600 nm (Bioscreen C, Labsystem, Helsinki, Finland). Microplates were incubated at 25° C. for plant pathogens and at 37° C. for food-borne bacterial strains. Absorbance readings were taken at hourly intervals over a 48 h period. Plates were shaken for 20 seconds before each measurement. The experiment was repeated twice.

[5] = system: MRSA; assay: MRSA-infected full-thickness skin excision wound in mice: survival, wound closure, angiogenesis; format: in vivo, Balb/C mice; conditions: for survival of infected mice: wound infected with 10^6 CFU MRSA, topical treatment
Protocol: Six to eight week old Balb/C male mice were used for the examples. MRSA culture and quantification were carried out, and suspensions were serially diluted and spread onto LB-agar plates in duplicate for 24 hours. After the incubation period, colony forming units (CFU) were counted, averaged, and expressed as CFU/ml. All animal handing procedures were in accordance with National Taiwan Ocean University (NTOU) guidelines. All procedures were approved by the Animal Care and Use Committee of NTOU.
The mice were housed individually to prevent fighting and further damage to the wounds, and were given ad libitum access to food and water. The mice were maintained under 12 h/12 h light/dark cycle at a room temperature, and adapted to the environment for at least a week before used in the experiments. Each mouse's hair was removed from the back by shaving, and a full-thickness excisional wound (1 cm in diameter) was created on the back of the mice.
as §2
Tracings were taken immediately after injury. For uncontaminated wounds, wound size was determined every second day. For contaminated wounds, mice were euthanized at Day 3, 7, 14, or 17, and tracings of the wound edges were made. Wound areas were determined using the Macintosh Adobe Photoshop program and histological examination. The percentage of wound contraction was calculated as follows: % Wound contraction=(A0−At)/A0×100%
where A0 is the area of the original wound, and At is the area of the wound on Day 3, 7, 14, and 17.
Multidrug-resistant strains of Staphylococcus aureus (MRSA) commonly associated with human wound infections were selected to generate a polymicrobial solution. The initial inoculum was prepared by culturing aerobic bacteria in Tryptic Soy Broth (TSB) overnight at 37° C. Broths were subsequently centrifuged at 1000 rpm for 15 min, and resuspended in TSB with 15% glycerol, or chopped meat extract with 15% glycerol (for aerobic bacteria). The concentration was adjusted to 10^6 cfu/50 μl, and stored at −80° C. Prior to wound application, the bacterial stocks were re-mixed. Microbial load was determined by direct plating, followed by freeze-thaw and cfu enumeration, in parallel with inoculations. The inoculum was delivered by sterile pipettes to the center of open wounds. After euthanization (at Day 0, 3, 7, 14, or 17), two bisected tissue segments were used to determine microbial load using the protocol for human wound biopsy culture, as stated in the UPMC Clinical Microbiology Laboratory Procedure Manual. Tissue biopsies were weighed and placed in 1.5 ml of TSB, and then homogenized in a tissue grinder. A single drop of the homogenate was placed on the slide and Gram stained for rough assessment (if one or more bacteria are present within the oil immersion field, the expected count in the tissue is at least 10^5 cfu/g). Serial dilutions (1:10 (0.1+0.9)) of the tissue homogenate were made using distilled water. The cfu/g of tissue was calculated as follows: cfu/g=plate count (1/dilution)×10/wt. of homogenized tissue. […]

## Epinecidin-1 (GFIFHIIKGLFHAGKMIHGLV; grouper) [Epi-1]
[1]
  MCP-1 induction by MRSA in serum: decreased
  induction of IL-6 in serum: significantly decreased
  induction of TNF-α in serum: significantly decreased
[2]; 24 h after treatment, compared to the control
  MRSA CFU in cultured injured skin sections: significantly reduced
[2]
  Gram staining of MRSA / Gram-positive microorganisms in wound sections: completely abolished; also recorded: more efficient at attenuating MRSA infection than vancomycin
[2]; MRSA-infected mice, compared with vancomycin
  bacterial counts in cultured skin sections (CFU): significantly lower
[3]; infected wound, Day 3
  IHC staining of VEGF: clearly reduced
  IHC staining/infiltration of macrophages: clearly reduced
  IHC staining/infiltration of monocytes: clearly reduced
[3]; wounded area tissue sections, MRSA-infected
  accumulation/recruitment of monocytes (Giemsa staining): reduced their recruitment
[4]
  antibacterial efficacy against MRSA in vitro: good antibacterial efficacy
[5]; MRSA-infected wound, compared to vancomycin-treated mice and control mice
  wound closure: faster
[5]; MRSA-infected wounded skin, light microscopy
  new blood vessel formation (angiogenesis): more prominent

## COc1cccc(OC)c1C(=O)N[C@@H]1C(=O)N2[C@@H]1SC(C)(C)[C@@H]2C(=O)O [methicillin]
[1]
  induction of IL-6 in serum: unaffected
  induction of TNF-α in serum: unaffected
[2]
  Gram staining of MRSA / Gram-positive microorganisms in wound sections: completely abolished
[2]; initial inoculum approximately 10^4 cfu/10 μl
  wound flora at Day 3: about 10^8 cfu/10 μl
[5]; contaminated wounds, GE33 study (FIG. 8B)
  wound closure time: lack of closure
[5]
  survival of infected mice: died within four days

## CN[C@H](CC(C)C)C(=O)N[C@H]1C(=O)N[C@@H](CC(N)=O)C(=O)N[C@H]2C(=O)N[C@H]3C(=O)N[C@H](C(=O)N[C@H](C(=O)O)c4cc(O)cc(O)c4-c4cc3ccc4O)[C@H](O)c3ccc(c(Cl)c3)Oc3cc2cc(c3O[C@@H]2O[C@H](CO)[C@@H](O)[C@H](O)[C@H]2O[C@H]2C[C@](C)(N)[C@H](O)[C@H](C)O2)Oc2ccc(cc2Cl)[C@H]1O [vancomycin]
[1]
  induction of IL-6 in serum: significantly decreased
  induction of TNF-α in serum: significantly decreased
[2]; MRSA-contaminated wounds
  colony counts between Days 7 and 17: decreased
[3]; histology of wounds
  overall epidermal maturation, keratinization and regeneration of the epithelium: impairment in overall epidermal maturation
[5]
  survival of infected mice: survived
[5]; wound infected with 10^6 cfu MRSA, 3, 7, 14 days
  healing and re-epithelialization of excision region: re-epithelialization observed
